In PubChem BioAssay (NCI) one finds TGI and GI50 data, which are given here for eight compounds.

Each structure is given as a SMILES string.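 A five-concentration, 48-hour dose response in 96-well plates underlies each endpoint, interpolated linearly between surrounding concentrations. GI50 marks 50% less growth. TGI marks complete inhibition of growth.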

Test systems include CAKI-1 renal; KM12 colon; K-562 leukemia; BT-549 breast; 786-0 renal; DU-145 prostate; MDA-N; HOP-92 NSCLC; EKVX NSCLC; KM20L2 colon.
Holding throughout (assay): NCI anticancer screen, dose series, 48 h

As to `O=C(Nc1ccccc1)c1cc2ccccc2c(N=Nc2cccc([N+](=O)[O-])c2)c1O`, the TGI in the assay on CAKI-1 renal, in the assay on KM12 colon, in the assay with K-562 leukemia, in the assay on BT-549 breast, in the assay with 786-0 renal and in the assay with DU-145 prostate was above 100 µM each time. Also, the TGI with MDA-N, with HOP-92 NSCLC and in the assay with EKVX NSCLC was above 100 µM each time.

On to `C1=N[C@]23C(=N[C@H](N=C2NCc2ccco2)[C@]24N=CNC2=N[C@H]3N=C4NCc2ccco2)N1`, for which the GI50 with CAKI-1 renal is 19.5 µM; in the assay on KM12 colon, above 100 µM; with K-562 leukemia, above 100 µM; with DU-145 prostate, above 100 µM; with HOP-92 NSCLC, 5.34 µM; with EKVX NSCLC, 89.5 µM. Moreover, the TGI in the assay with CAKI-1 renal, with KM12 colon, in the assay on K-562 leukemia, in the assay with DU-145 prostate, in the assay on HOP-92 NSCLC and in the assay on EKVX NSCLC was above 100 µM in each case.

Turning to `Cc1c(C)c2c(c(C)c1OC(=O)CCC(=O)[O-])CCC(C)(CCCCCCCCCCC[P+](c1ccccc1)(c1ccccc1)c1ccccc1)O2` (centres undefined), the GI50 is 0.451 µM in the assay with CAKI-1 renal; 0.177 µM with KM12 colon; 0.182 µM in the assay on K-562 leukemia; 0.14 µM with BT-549 breast; 0.218 µM with DU-145 prostate; 0.078 µM with HOP-92 NSCLC. Further, in the assay with EKVX NSCLC, the GI50 was 0.222 µM. In addition, the TGI in the assay with CAKI-1 renal worked out at 1.34 µM; in the assay on KM12 colon it was 0.705 µM; in the assay on K-562 leukemia, 50 µM; with BT-549 breast, 0.678 µM; in the assay on DU-145 prostate, 0.899 µM; with HOP-92 NSCLC it was 0.276 µM. In the assay with EKVX NSCLC, this compound came in with a TGI of 1.45 µM.

As for `O=C([CH-]C(=O)c1ccccc1)c1ccccc1.[C-]#[O+].[C-]#[O+].[Ir]`, the GI50 was 79.1 µM with CAKI-1 renal, 66.1 µM with KM12 colon, 39.7 µM in the assay with KM20L2 colon and above 100 µM in the assay on EKVX NSCLC. Further, the TGI with CAKI-1 renal, in the assay with KM12 colon, with KM20L2 colon and in the assay with EKVX NSCLC was above 100 µM each time.

For `C=C1CC[C@@]2(C)[C@@H]([C@@H]1C)[C@H]1CC[C@@H]3[C@@]4(C)CC[C@H](O)C(C)(C)[C@@H]4CC[C@@]3(C)[C@]1(C)C[C@@H]2O`, the TGI with CAKI-1 renal is 5.59 µM; in the assay with KM12 colon, 15.8 µM; in the assay on BT-549 breast, 34.6 µM; with DU-145 prostate, 17.5 µM; with MDA-N, above 51.5 µM; in the assay with HOP-92 NSCLC, 4.82 µM. The same compound displayed a TGI with EKVX NSCLC of 7.22 µM.

Consider `CON(C)c1nc(N)c(C#N)c(C#N)c1C#N`, for which the TGI in the assay with CAKI-1 renal, in the assay with KM12 colon, in the assay on DU-145 prostate, in the assay with MDA-N and in the assay on EKVX NSCLC was above 10 µM throughout.

On to `C[C@@H]1C[C@H]2OC(=O)[C@@]3(C)CCC[C@@](C)([C@@H]23)[C@@]1(O)CCc1ccoc1`, for which the TGI in the assay with CAKI-1 renal, in the assay with KM12 colon, in the assay on K-562 leukemia, in the assay on BT-549 breast, in the assay with 786-0 renal and in the assay with DU-145 prostate was above 100 µM throughout. The TGI with MDA-N, with HOP-92 NSCLC and in the assay with EKVX NSCLC was above 100 µM throughout.

With `COc1cccc(N/C(C)=C2/CCOC2=O)c1`, the TGI in the assay on CAKI-1 renal, with KM12 colon, in the assay with DU-145 prostate, in the assay with MDA-N and with EKVX NSCLC was above 10 µM in each case.
